Laboratory results from patent US20080207455A1, “5,6-Dialkyl-7-Aminoazolopyrimidines, Their Preparation and Their Use for Controlling Harmful Fungi, and Compositions Comprising These Compounds” (BASF AKTINGESELLSCHAFT, priority 2005, published 2008).

Experiments:
Plasmopara viticola = assay: Activity against peronospora of grapevines caused by Plasmopara viticola (protective leaf spray, potted vines); format: in vivo; conditions: comparison with the closest prior art, concentration not restated in the table, untreated 100
Description: The mixture was then made up to 100 ml with water. This stock solution was diluted with the solvent/emulsifier/water mixture described to the concentration of active compounds stated below. Use example 1—Activity against peronospora of grapevines caused by Plasmopara viticola Leaves of potted vines were sprayed to runoff point with an aqueous suspension comprising 250 ppm of active compound. The next day, the undersides of the leaves were inoculated with an aqueous sporangia suspension of Plasmopara viticola. The vines were then initially placed in a water vapor-saturated chamber at 24° C. for 48 hours and then in a greenhouse at temperatures between 20 and 30° C. for five days. After this time, the plants were once more placed in a humid chamber for 16 hours to accelerate the eruption of sporangiophores. The extent of the development of the infection on the undersides of the leaves was then determined visually.

Structure (SMILES)	melting point	Infection in % (Plasmopara viticola)
CCc1nc2nc(C)nn2c(N)c1CCC(C)CC(C)(C)C (stereo not shown) [Compound I-1, 5-ethyl-2-methyl-6-(3,5,5-trimethylhexyl)-[1,2,4]triazolo[1,5-a]pyrimidin-7-ylamine]	180 to 181 °C	–
CCCCCCCCCCc1c(CC)nc2cc(C)nn2c1N [Compound I-4]	130 to 131 °C	3%
CCCCCCCCCCc1c(C)nc2cc(C)nn2c1N [Compound 28, reference compound]	–	40%
